Data as given in patent publication US9320281B2, “Readied in situ glyphosate herbicide soluble powder composition and its preparation process” (ALLVET QUIMICA INDUSTRIAL LTDA., priority 2011, dated 2016).
Where “and” joins values, the source holds several entries; their conditions need not be identical. Identical values can stand only once.

What was measured:
[1] = cited from earlier work
Fish = Fish toxicology LC50, OECD 203, 96 h; assay type: in vivo; details: for Fish toxicology LC50: OECD 203, 96 h; for times less toxic for fish compared to a fatty amine ethoxylate: in vivo
Source text: (§1) The low toxicity of coconut fatty acid copolymers with glycerol is illustrated by the following table

rabbits = experiment: Eye irritation rabbits; details: rabbit, in vivo
daphnia = experiment: Acute daphnia immobilization EC50, OECD 202; assay type: in vivo; details: for times less toxic for daphnia compared to a fatty amine ethoxylate: in vivo
Source text: as §1

rats = experiment: Acute oral toxicology LD50 in rats; assay type: in vivo
[2] = 1,4-Dioxane content (carcinogen)
Source text: The inevitable presence of 1,4-dioxane in all ethoxylated products is the reason why all ethoxylates including coco amide ethoxylates were excluded from consideration in the product of the present invention.

variety of weeds = experiment: Extensive field tests in Brazil and South Africa versus standard 360 g/liter liquid formulation; assay type: in vivo; details: surfactant in the glyphosate formulation
Experimental: The product was extensively tested on the field. During eighteen months the soluble powder formulation was applied in different dosages on a variety of weeds in the state of Paraná, Brazil and in the province of […] in the Republic of South Africa and the results were compared with those obtained applying the standard product 360 g/liter liquid formulation side by side on the same fields.
More than one hundred field tests of the Soluble Powder were carried out. Each test consisted in applying different dosages of glyphosate acid on the field using the Soluble Powder object of the present invention and similar dosages of the standard 360 g/liter liquid formulation and comparing the results obtained side by side on the same field. Phytotoxicity of the weeds was measured by sampling and visual counting. All results were recorded and photographs taken before and after the tests.

| Compound | Fish toxicology LC50 (Fish) | times less toxic for fish compared to a fatty amine ethoxylate (Fish) | Eye irritation rabbits (rabbits) | Biodegradability (Biodegradability) | times less toxic for daphnia compared to a fatty amine ethoxylate (daphnia) | also measured |
| --- | --- | --- | --- | --- | --- | --- |
| O=C(O)CNCP(=O)(O)O [Glyphosate, N-(phosphonomethyl)-glycine] | – | – | – | – | – | solubility in water [1]: insoluble |
| Coco amide propyl amine oxide | 6 mg/l and >6 mg/l | 15 times | Irritant | >90% | 100 times | – |
| Fatty amine ethoxylate [reference compound] | 0.42 mg/l | – | Serious eye | <60% | – | Acute oral toxicology LD50 (rats): 200-2000 mg/kg; 1,4-Dioxane content (carcinogen) [2]: Up to 25,000 ppm; Acute daphnia immobilization EC50 (daphnia; OECD 202): 0.46 µg/mL |
| coco amide propyl betaine | – | 15 times | – | – | 100 times | efficiency as surfactant compared with coco amide propyl amine oxide (variety of weeds): just as efficient |
| coconut oil polymer with glyceryl and phthalic anhydride | – | – | – | >42% | – | – |
